# Data from paper PMC9863764, “Roles of Human Liver Cytochrome P450 Enzymes in Tenatoprazole Metabolism” (Pharmaceutics, 2022).
# Values joined by “and” are separate entries in the source; they are usually repeats but may differ in a detail not shown here. Equal entries are not always repeated.
# What was measured:
# [1] = set-up: method as in PMID 27640009; conditions: neutral pH; cited from earlier work
# [2] = tested on: human liver microsomes (HLMs); assay: Time course of oxidation of tenatoprazole and tenatoprazole sulfide by human liver microsomes (HPLC); type: in vitro ADME; conditions: for tenatoprazole remained: substrate tenatoprazole 500 μM
# Method: A racemate of tenatoprazole was used in this work because the chiral tenatoprazoles currently are not commercially available. The reactions using HLMs contained incubation at 37 °C in 0.25 mL mixtures containing P450 (0.5 mg protein/mL) in 100 mM potassium phosphate buffer (pH 7.4), an NADPH-generating system (NGS, final concentration of 10 mM glucose-6-phosphate, 0.50 mM NADP^+, 1.0 IU yeast glucose-6-phosphate dehydrogenase per mL), and 0.1 mM of tenatoprazole or tenatoprazole sulfide. Incubations generally were performed for 2 h in the presence or absence of the NGS. Tenatoprazole and its metabolites were extracted twice using cold ethyl acetate as an organic solvent. Then centrifugation (1000× g, 20 min) was done to separate the organic layer from the aqueous layer. Omeprazole was added to this solution as an internal standard (IS) at a final 20 μM concentration. The organic layer was concentrated under nitrogen gas stream. The dried residues were then dissolved in the mobile phase (180 μL) and 30 μL was injected onto the column.
# High-performance liquid chromatography (HPLC) was performed on the basis of a previously developed method for tenatoprazole and its metabolites, as described elsewhere. The analytical column was a Gemini C18 column (4.6 × 150 mm, 5 μm; Phenomenex), and the HPLC mobile phase consisted of acetonitrile and 5 mM potassium phosphate buffer (pH 7.3) (25:75, v/v). The substrate and its metabolites were detected at A302. The HPLC profile of the authentic compounds (i.e., tenatoprazole and its metabolites) were measured to compare to identify the major metabolites of tenatoprazole and tenatoprazole sulfide produced by HLMs.
# The time course of the oxidation of tenatoprazole and tenatoprazole sulfide by HLMs (0.5 mg protein/mL) was analyzed to the estimated yield of metabolites and percentage of each metabolite using 0.60 mM substrate in 0.25 mL of 0.10 M potassium phosphate buffer (pH 7.4). After NGS was added to initiate the reaction, the samples were incubated for the designated time (i.e., 2, 5, 10, and 30 min, and 1, 2, 4, 8, 12, and 24 h) at 37 °C. Product formation was quantified using HPLC analysis, as mentioned above.
# Calibration standard curves of tenatoprazole were made using a blank control sample (a reaction mixture without substrate and IS) and 12 samples containing tenatoprazole and omeprazole (IS) covering the concentration ranges of 1–500 μM, as described previously. The peak area ratio of tenatoprazole to IS was linear with respect to the analyte concentration over the range of 1–500 μM. The metabolites were quantified by comparing the peak areas of each metabolite to the mean peak areas of the IS (20 μM omeprazole).
# human CYP2C19 [3] = target: T1, human CYP2C19 (Homo sapiens, UniProt P33261); assay: Steady-state kinetics of tenatoprazole oxidation by recombinant CYP2C19; type: in vitro ADME
# T1 construct: made in house; host or cells: Escherichia coli (membrane fractions)
# Method: Pooled liver microsomes from human samples were obtained from ThermoFisher Scientific (Waltham, MA, USA). […] Membrane fractions expressing both P450 and CPR of E. coli were prepared as described previously and were used for the catalytic activity assays. […] The reaction was started by adding NGS and the incubation was continued for the indicated time at 37 °C. Incubation was then stopped by adding ice-chilled ethyl acetate (0.50 mL) and omeprazole (IS) was added to a final concentration of 20 μM. […] Phenomenex, Torrance, CA, USA). The products formed were analyzed by HPLC at […]. […] The kinetic parameters (kcat and Km) were determined by using a Michaelis-Menten nonlinear regression analysis with GraphPad Prism (GraphPad Software, San Diego, CA, USA).
# [4] = set-up: method as in PMID 23205582; conditions: compared with other PPIs such as lansoprazole and omeprazole; cited from earlier work
# CYP2C9 = target: T2, CYP2C9 (Homo sapiens, UniProt P11712); assay: Tenatoprazole oxidation by recombinant CYP2C9; type: in vitro ADME; conditions: substrate tenatoprazole 0.10 mM, 0.20 μM CYP2C9
# T2 construct: made in house; host or cells: Escherichia coli (membrane fractions)
# Method: (§1) Pooled liver microsomes from human samples were obtained from ThermoFisher Scientific (Waltham, MA, USA). Recombinant human P450s were heterologously expressed in Escherichia coli with a pCW vector containing human P450 cDNA (CYP 3A4, 2C9, 2C19, 1A2, 1B1, 2E1, 2D6, and 2A6) and rat NADPH-P450 reductase (CPR). Membrane fractions expressing both P450 and CPR of E. coli were prepared as described previously and were used for the catalytic activity assays.
# (§2) The reaction mixture included 0.20 μM P450, 0.40 μM CPR, and tenatoprazole (0.10 mM) in 0.25 mL of 0.10 M potassium phosphate buffer (pH 7.4). The reaction was started by adding NGS and the incubation was continued for the indicated time at 37 °C. Incubation was then stopped by adding ice-chilled ethyl acetate (0.50 mL) and omeprazole (IS) was added to a final concentration of 20 μM. The mixtures were vortexed for 2 min, centrifuged at 1000× g for 20 min, and then the organic layer was taken for drying under nitrogen gas stream. The residues were dissolved in 180 μL of HPLC mobile phase and 30 μL was injected onto a Gemini C18 column (4.6 × 150 mm, 5 μm; Phenomenex, Torrance, CA, USA). The products formed were analyzed by HPLC at A302. […]
# CYP2A6 = target: T3, CYP2A6 (Homo sapiens, UniProt P11509); assay: Tenatoprazole oxidation by recombinant CYP2A6; type: in vitro ADME; conditions: substrate tenatoprazole 0.10 mM, 0.20 μM CYP2A6; no apparent formation
# T3 construct: made in house; host or cells: Escherichia coli (membrane fractions)
# T3 sequence (P11509 1-494): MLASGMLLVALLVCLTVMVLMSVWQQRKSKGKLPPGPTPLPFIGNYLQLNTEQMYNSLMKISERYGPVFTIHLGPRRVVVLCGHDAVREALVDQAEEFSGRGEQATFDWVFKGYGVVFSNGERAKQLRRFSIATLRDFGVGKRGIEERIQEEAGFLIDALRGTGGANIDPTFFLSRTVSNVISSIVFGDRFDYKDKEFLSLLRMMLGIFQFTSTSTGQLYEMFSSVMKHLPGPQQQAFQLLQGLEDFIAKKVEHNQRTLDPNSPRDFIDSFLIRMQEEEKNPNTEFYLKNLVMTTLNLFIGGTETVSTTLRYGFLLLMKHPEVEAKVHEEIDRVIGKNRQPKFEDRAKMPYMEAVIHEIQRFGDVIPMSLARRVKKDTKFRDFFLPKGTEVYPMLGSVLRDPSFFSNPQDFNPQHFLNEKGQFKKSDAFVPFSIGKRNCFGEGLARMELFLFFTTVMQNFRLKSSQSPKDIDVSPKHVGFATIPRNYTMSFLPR
# Method: as §1
# (§3) The reaction mixture included 0.20 μM P450, 0.40 μM CPR, and tenatoprazole (0.10 mM) in 0.25 mL of 0.10 M potassium phosphate buffer (pH 7.4). The reaction was started by adding NGS and the incubation was continued for the indicated time at 37 °C. Incubation was then stopped by adding ice-chilled ethyl acetate (0.50 mL) and omeprazole (IS) was added to a final concentration of 20 μM. The mixtures were vortexed for 2 min, centrifuged at 1000× g for 20 min, and then the organic layer was taken for drying under nitrogen gas stream. The residues were dissolved in 180 μL of HPLC mobile phase and 30 μL was injected onto a Gemini C18 column (4.6 × 150 mm, 5 μm; Phenomenex, Torrance, CA, USA). The products formed were analyzed by HPLC at A302. The HPLC profile of the authentic chemicals (i.e., tenatoprazole, tenatoprazole sulfide, and their metabolites) were used to identify the major metabolites of tenatoprazole and tenatoprazole sulfide produced by the recombinant P450s.
# (§4) Figure S6. HPLC analyses of the products derived from the oxidation of tenatoprazole catalyzed by recombinant human P450s. The reaction mixture included 0.20 μM P450, 0.40 μM CPR, and 0.10 mM tenatoprazole in 0.25 mL of potassium phosphate buffer (0.10 M, pH 7.4). The reaction was started by adding an NGS at 37 °C for 60 min. (A) CYP1A2; (B) CYP1B1; (C) CYP2A6; (D) CYP2C9; (E) CYP2D6; (F) CYP2E1. The arrows with solid and broken lines indicate the retention times of 5’-OH tenatoprazole (6.6 min) and 5’-OH tenatoprazole sulfide (8.4 min), respectively.
# (§5) (1 picture or pasted object on this page, not shown here)
# CYP1A2 = target: T4, CYP1A2 (Homo sapiens, UniProt P05177); assay: Tenatoprazole oxidation by recombinant CYP1A2; type: in vitro ADME; conditions: substrate tenatoprazole 0.10 mM, 0.20 μM CYP1A2; no apparent formation
# T4 construct: made in house; host or cells: Escherichia coli (membrane fractions)
# T4 sequence (P05177 1-516): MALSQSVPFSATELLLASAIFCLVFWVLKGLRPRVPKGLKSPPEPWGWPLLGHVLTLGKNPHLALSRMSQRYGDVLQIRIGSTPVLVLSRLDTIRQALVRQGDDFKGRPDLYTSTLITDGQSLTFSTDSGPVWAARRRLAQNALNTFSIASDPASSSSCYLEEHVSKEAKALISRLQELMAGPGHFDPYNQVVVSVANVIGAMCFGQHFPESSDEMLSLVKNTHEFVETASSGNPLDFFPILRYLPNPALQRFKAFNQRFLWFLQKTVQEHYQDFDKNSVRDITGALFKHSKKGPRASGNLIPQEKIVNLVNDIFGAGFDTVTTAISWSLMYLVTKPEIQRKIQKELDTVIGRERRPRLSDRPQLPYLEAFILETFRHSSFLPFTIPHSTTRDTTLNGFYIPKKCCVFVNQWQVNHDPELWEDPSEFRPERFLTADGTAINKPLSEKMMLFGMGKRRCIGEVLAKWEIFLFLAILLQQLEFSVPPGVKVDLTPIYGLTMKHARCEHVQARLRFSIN
# Method: as §1, §3, §4, §5
# CYP1B1 = target: T5, CYP1B1 (Homo sapiens, UniProt Q16678); assay: Tenatoprazole oxidation by recombinant CYP1B1; type: in vitro ADME; conditions: substrate tenatoprazole 0.10 mM, 0.20 μM CYP1B1; no apparent formation
# T5 construct: made in house; host or cells: Escherichia coli (membrane fractions)
# T5 sequence (Q16678 1-543): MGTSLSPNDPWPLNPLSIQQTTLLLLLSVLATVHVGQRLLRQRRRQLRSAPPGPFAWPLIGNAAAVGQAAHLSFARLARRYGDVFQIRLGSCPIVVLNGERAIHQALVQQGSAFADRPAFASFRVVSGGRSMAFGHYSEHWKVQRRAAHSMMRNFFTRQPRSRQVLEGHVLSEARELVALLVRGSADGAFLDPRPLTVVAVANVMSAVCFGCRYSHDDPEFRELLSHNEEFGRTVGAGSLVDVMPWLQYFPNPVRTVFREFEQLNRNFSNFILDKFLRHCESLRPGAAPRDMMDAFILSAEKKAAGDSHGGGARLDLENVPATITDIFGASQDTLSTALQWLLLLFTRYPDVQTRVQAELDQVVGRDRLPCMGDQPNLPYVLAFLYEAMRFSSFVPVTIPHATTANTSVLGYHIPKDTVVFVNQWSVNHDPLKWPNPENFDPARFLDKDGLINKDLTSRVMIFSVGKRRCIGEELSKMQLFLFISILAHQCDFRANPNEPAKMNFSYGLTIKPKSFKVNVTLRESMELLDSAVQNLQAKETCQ
# Method: as §1, §3, §4, §5
# CYP2E1 = target: T6, CYP2E1 (Homo sapiens, UniProt P05181); assay: Tenatoprazole oxidation by recombinant CYP2E1; type: in vitro ADME; conditions: substrate tenatoprazole 0.10 mM, 0.20 μM CYP2E1; no apparent formation
# T6 construct: made in house; host or cells: Escherichia coli (membrane fractions)
# Method: as §1, §3, §4, §5
# CYP2D6 = target: T7, CYP2D6 (Homo sapiens, UniProt P10635); assay: Tenatoprazole oxidation by recombinant CYP2D6; type: in vitro ADME; conditions: substrate tenatoprazole 0.10 mM, 0.20 μM CYP2D6
# T7 construct: made in house; host or cells: Escherichia coli (membrane fractions)
# Method: as §1, §2
# human CYP3A4 = target: T8, human CYP3A4 (Homo sapiens, UniProt P08684); assay: Sulfoxidation of tenatoprazole sulfide by recombinant CYP3A4 (chiral chromatography); type: in vitro ADME; conditions: substrate tenatoprazole sulfide, recombinant CYP3A4, chiral chromatography; label = product formed
# T8 construct: made in house; host or cells: Escherichia coli (membrane fractions)
# Method: The sulfoxidation reaction of tenatoprazole sulfide by CYP3A4 was measured by chiral chromatography. […] The reaction was initiated by adding NGS at 37 °C. […] After the residues were solubilized in 180 μL mobile phase, 30 μL samples were injected onto a Chiralpak AD column (4.6 × 150 mm, 10 μm; Daicel Corporation, Osaka, Japan) with a hexane-ethanol mixture (30:70, v/v) as the mobile phase. The products formed were analyzed by HPLC at […]. […] The kinetic parameters (kcat and Km) were determined by using a Michaelis-Menten nonlinear regression analysis with GraphPad Prism (GraphPad Software, San Diego, CA, USA).
# human CYP2C19 [5] = target: T1, human CYP2C19; set-up: method as in earlier work; conditions: in vitro; cited from earlier work
# T1 sequence (P33261 whole entry): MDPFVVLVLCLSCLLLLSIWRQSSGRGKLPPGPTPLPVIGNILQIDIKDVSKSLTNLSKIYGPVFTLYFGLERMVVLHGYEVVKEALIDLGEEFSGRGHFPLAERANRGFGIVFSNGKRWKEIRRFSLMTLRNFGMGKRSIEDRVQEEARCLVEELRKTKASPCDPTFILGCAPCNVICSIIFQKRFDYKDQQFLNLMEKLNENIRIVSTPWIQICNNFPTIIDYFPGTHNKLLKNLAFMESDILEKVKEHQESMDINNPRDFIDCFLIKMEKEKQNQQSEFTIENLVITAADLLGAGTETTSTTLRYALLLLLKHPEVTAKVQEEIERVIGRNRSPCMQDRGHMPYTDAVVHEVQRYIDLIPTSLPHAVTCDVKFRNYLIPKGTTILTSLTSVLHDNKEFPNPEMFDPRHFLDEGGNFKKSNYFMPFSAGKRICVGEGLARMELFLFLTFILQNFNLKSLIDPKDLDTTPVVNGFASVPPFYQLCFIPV
# T8 sequence (P08684 whole entry): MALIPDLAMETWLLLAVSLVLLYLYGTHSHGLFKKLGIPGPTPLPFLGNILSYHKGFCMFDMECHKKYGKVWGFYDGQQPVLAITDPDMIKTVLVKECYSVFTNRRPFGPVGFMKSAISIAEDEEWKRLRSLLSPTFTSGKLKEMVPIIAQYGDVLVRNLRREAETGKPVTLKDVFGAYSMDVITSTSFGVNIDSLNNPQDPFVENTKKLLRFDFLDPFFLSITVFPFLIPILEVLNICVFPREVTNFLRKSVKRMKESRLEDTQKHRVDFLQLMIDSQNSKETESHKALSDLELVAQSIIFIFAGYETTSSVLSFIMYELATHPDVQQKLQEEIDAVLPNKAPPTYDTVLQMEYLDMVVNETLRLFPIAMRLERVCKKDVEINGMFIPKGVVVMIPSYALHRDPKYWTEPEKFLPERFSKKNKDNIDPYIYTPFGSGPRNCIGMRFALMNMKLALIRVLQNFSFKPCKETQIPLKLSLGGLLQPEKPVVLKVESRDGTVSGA
# T2 sequence (P11712 whole entry): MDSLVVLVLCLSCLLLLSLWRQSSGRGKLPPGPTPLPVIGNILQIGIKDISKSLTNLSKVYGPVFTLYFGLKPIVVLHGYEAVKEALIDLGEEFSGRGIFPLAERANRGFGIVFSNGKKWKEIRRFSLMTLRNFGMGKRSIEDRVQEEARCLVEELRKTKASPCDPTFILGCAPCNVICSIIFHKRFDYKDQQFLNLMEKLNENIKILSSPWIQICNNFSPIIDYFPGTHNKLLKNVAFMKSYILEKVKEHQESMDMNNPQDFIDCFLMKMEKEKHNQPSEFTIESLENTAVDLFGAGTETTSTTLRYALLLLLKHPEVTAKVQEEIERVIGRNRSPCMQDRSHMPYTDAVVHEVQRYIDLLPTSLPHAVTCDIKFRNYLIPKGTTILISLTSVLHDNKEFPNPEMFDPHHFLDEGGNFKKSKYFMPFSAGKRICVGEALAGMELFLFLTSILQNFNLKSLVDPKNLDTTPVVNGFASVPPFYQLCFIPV
# T7 sequence (P10635 whole entry): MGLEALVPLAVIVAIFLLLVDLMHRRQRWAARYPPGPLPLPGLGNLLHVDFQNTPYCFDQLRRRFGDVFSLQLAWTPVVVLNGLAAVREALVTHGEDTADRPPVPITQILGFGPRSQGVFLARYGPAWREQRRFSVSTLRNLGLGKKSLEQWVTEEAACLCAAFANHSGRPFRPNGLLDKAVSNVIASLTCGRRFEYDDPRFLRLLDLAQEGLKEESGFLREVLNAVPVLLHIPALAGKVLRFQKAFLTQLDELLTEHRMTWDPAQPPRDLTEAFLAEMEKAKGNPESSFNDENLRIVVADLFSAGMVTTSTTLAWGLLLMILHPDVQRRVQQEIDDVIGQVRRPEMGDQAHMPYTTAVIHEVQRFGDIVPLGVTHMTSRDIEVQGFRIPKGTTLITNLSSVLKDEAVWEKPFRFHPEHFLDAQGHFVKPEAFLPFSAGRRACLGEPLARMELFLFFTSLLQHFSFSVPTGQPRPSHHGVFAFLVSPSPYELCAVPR
# T6 sequence (P05181 whole entry): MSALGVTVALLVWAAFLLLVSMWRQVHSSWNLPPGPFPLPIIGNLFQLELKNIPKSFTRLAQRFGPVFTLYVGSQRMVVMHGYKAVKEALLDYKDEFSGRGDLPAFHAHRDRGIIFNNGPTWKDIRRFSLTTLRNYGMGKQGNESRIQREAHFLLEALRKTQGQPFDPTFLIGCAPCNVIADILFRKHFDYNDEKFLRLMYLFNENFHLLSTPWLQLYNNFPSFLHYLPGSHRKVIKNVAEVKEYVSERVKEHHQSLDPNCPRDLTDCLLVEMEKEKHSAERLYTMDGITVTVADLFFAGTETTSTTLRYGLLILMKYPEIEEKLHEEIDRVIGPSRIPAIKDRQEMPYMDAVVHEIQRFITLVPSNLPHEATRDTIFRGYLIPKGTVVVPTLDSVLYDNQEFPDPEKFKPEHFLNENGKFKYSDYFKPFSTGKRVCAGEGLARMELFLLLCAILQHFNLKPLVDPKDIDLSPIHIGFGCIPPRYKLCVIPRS
smiles,measurement,setting,value
"COc1ccc2[nH]c([S+]([O-])Cc3ncc(C)c(OC)c3C)nc2c1 (stereo not drawn) [omeprazole, Omeprazole]",spontaneous or nonenzymatic degradation to omeprazole sulfide,[1],not spontaneously or nonenzymatically degraded
"COc1ccc2[nH]c([S+]([O-])Cc3ncc(C)c(OC)c3C)nc2n1 (stereo not drawn) [tenatoprazole, Tenatoprazole]",tenatoprazole remained,"[2]; HLM reaction mixture without NADPH, after 12 h",4.4%
same,tenatoprazole remained,"[2]; HLMs, presence of NADPH, 12 h of incubation, 37 °C",1.0%
same,product formed from tenatoprazole sulfide (% of substrate),"[2]; substrate tenatoprazole sulfide 500 μM, HLMs, presence of NADPH, after 12 h",0.49%
same,sulfoxidation of tenatoprazole by CYP2C19,"human CYP2C19 [3]; recombinant CYP2C19, substrate tenatoprazole",did not catalyze
same,"plasma half-life, times longer than those of other PPI drugs",[4],~7 times
COc1ccc2[nH]c(SCc3ncc(CO)c(OC)c3C)nc2n1 [5′-OH tenatoprazole sulfide],formation rate of metabolite,CYP2C9,0.1 min⁻¹
same,formation rate of metabolite,CYP2A6,< 0.05 nmol product/min/nmol P450
same,formation rate of metabolite,CYP1A2,< 0.05 nmol product/min/nmol P450
same,kcat of product formation,"human CYP2C19 [3]; substrate tenatoprazole (1–500 μM), recombinant CYP2C19 0.20 μM, 37 °C, 5 min, label = product formed",0.0333 s⁻¹ and 0.0333 ± 0.0017 s⁻¹
same,formation rate of metabolite,CYP1B1,< 0.05 nmol product/min/nmol P450
same,formation rate of metabolite,CYP2E1,< 0.05 nmol product/min/nmol P450
same,formation rate of metabolite,CYP2D6,0.3 min⁻¹
COc1ccc2[nH]c([S@@+]([O-])Cc3ncc(C)c(OC)c3C)nc2n1 [S-tenatoprazole],kcat of product formation,human CYP3A4,0.045 s⁻¹ and 0.045 ± 0.0033 s⁻¹
same,rate of metabolism of S-isomer relative to R-isomer,human CYP2C19 [5],around seven times more slowly
